Results from patent US20260159536A1, “AKR1C3-ACTIVATED DNA ALKYLATING AGENT, AND MEDICAL APPLICATION THEREOF” (ASCENTAWITS PHARMACEUTICALS, LTD., priority 2021, published 2026).

Legend:
[1] = system: human liver cancer HepG2 cells; experiment: In vivo pharmacodynamics, liver cancer HepG2 CDX model; design: species or system BALB/c nude mice; settings: for Tumor volume (x ± S): in mm³ (unit assumed)
Protocol: Experiment Instruction: BALB/c nude mice were subcutaneously inoculated with human liver cancer HepG2 cells to establish a subcutaneous transplantation tumor model of human liver cancer. […] The efficacy was evaluated according to the relative tumor inhibition rate TGI (%), and the safety was evaluated according to the change in body weight and the death of the animals.

[2] = system: human liver cancer LI6652; experiment: In vivo pharmacodynamics, liver cancer LI6652 subcutaneous xenograft PDX model; design: species or system BALB/c nude mice; settings: 5 mg/kg i.p. QDx5, 2 days off, 2 weeks off, 2 cycles; Day 28
[3] = Plasma stability test, mouse; format: in vitro ADME; settings: 5 μM, 37° C.
Protocol: (§1) The pH of the plasma was checked and recorded. Note: a.
(§2) The final concentration of solvent was 0.5%.
(§3) The assay was performed in duplicate. […] The tubes were mixed by vortex for 5 minutes.

[4] = Plasma stability test, rat; format: in vitro ADME; settings: 5 μM, 37° C.
Protocol: as §1, §2, §3

[5] = 2.5 mg/kg, QDx5, 2 days off, 2 weeks off, QDx5, i.p., Day 53
[6] = 5 mg/kg, QDx5, 2 days off, 2 weeks off, QDx5, i.p., Day 53
[7] = 5 mg/kg, QWx2, 1 week off, QWx2, i.v., Day 53
[8] = 10 mg/kg, QWx2, 1 week off, QWx2, i.v., Day 53

Work on `O=[N+]([O-])c1ccc(C(OP(=O)(N2CC2)N2CC2)C(F)(F)F)cc1Oc1ccc(-c2ccc(F)cc2)c(F)c1` (racemic) [Compound A] yielded a Tumor volume ([1]; 2.5 mg/kg i.p., Day 24) of 360.14 mm^3, a Tumor volume ([1]; 2.5 mg/kg i.p., Day 27) of 373.23 mm^3 and a Tumor volume ([1]; 2.5 mg/kg i.p., Day 31) of 405.67 mm^3. For the same compound, the Tumor volume ([1]; 2.5 mg/kg i.p., Day 36) was 392.90 mm^3, the Tumor volume ([1]; 2.5 mg/kg i.p., Day 39) was 342.04 mm^3 and the Tumor volume ([1]; 2.5 mg/kg i.p., Day 42) was 399.84 mm^3. The Tumor volume ([1]; 2.5 mg/kg i.p., Day 46) was 417.54 mm^3, the Tumor volume ([1]; 2.5 mg/kg i.p., Day 49) was 456.60 mm^3 and the Tumor volume ([1]; 2.5 mg/kg i.p., Day 53) was 417.76 mm^3. For the same compound, the “Relative tumor volume (x ± S)” value [1, 5] was 2.19 ± 0.52, the “T/C (%)” value [1, 5] was 18.46% and the “TGI (%)” value [1, 5] was 81.54%. The “Tumor volume (x ± S)” value [1, 5] was 417.76 ± 105.16, the “euthanasia owing to BWL>20%” value ([1]; 5 mg/kg QDx5, 2 days off, 2 weeks off, QDx5, i.p. (Group 7)) was “one mouse was euthanized” and the death ([1]; 5 mg/kg QWx2, 1 week off, QWx2, i.v. (Group 3)) was “one mouse in this group suffered death”. The Tumor volume ([1]; 5 mg/kg i.p., Day 19) was 189.64 mm^3, the Tumor volume ([1]; 5 mg/kg i.p., Day 22) was 259.29 mm^3 and the Tumor volume ([1]; 5 mg/kg i.p., Day 24) was 280.24 mm^3. The Tumor volume ([1]; 5 mg/kg i.p., Day 27) was 286.22 mm^3, the Tumor volume ([1]; 5 mg/kg i.p., Day 31) was 290.75 mm^3 and the Tumor volume ([1]; 5 mg/kg i.p., Day 36) was 293.88 mm^3. For the same compound, the Tumor volume ([1]; 5 mg/kg i.p., Day 39) was 247.49 mm^3, the Tumor volume ([1]; 5 mg/kg i.p., Day 42) was 224.58 mm^3 and the Tumor volume ([1]; 5 mg/kg i.p., Day 46) was 215.32 mm^3. It also gave a Tumor volume ([1]; 5 mg/kg i.p., Day 49) of 234.89 mm^3, a Tumor volume ([1]; 5 mg/kg i.p., Day 53) of 189.84 mm^3 and a Tumor volume ([1]; 5 mg/kg i.v., Day 19) of 191.48 mm^3. It also gave a Tumor volume ([1]; 5 mg/kg i.v., Day 22) of 315.19 mm^3, a Tumor volume ([1]; 5 mg/kg i.v., Day 24) of 360.12 mm^3 and a Tumor volume ([1]; 5 mg/kg i.v., Day 27) of 390.21 mm^3. For the same compound, the Tumor volume ([1]; 5 mg/kg i.v., Day 31) was 373.82 mm^3, the Tumor volume ([1]; 5 mg/kg i.v., Day 36) was 314.44 mm^3 and the Tumor volume ([1]; 5 mg/kg i.v., Day 39) was 283.08 mm^3. For the same compound, the Tumor volume ([1]; 5 mg/kg i.v., Day 42) was 276.88 mm^3, the Tumor volume ([1]; 5 mg/kg i.v., Day 46) was 233.11 mm^3 and the Tumor volume ([1]; 5 mg/kg i.v., Day 49) was 145.58 mm^3. The Tumor volume ([1]; 5 mg/kg i.v., Day 53) was 136.44 mm^3, the “Relative tumor volume (x ± S)” value [1, 6] was 0.99 ± 0.38 and the “T/C (%)” value [1, 6] was 8.33%. The “TGI (%)” value [1, 6] was 91.67%, the “Tumor volume (x ± S)” value [1, 6] was 189.84 ± 72.81 and the “Relative tumor volume (x ± S)” value [1, 7] was 0.70 ± 0.34. For the same compound, the “T/C (%)” value [1, 7] was 5.92%, the “TGI (%)” value [1, 7] was 94.08% and the “Tumor volume (x ± S)” value [1, 7] was 136.44 ± 66.47. The “weight loss or death” value ([1]; 10 mg/kg i.v. (Group 4) and 2.5 mg/kg i.p. (Group 6)) was “did not cause severe weight loss or death”, the Tumor volume ([1]; 10 mg/kg i.v., Day 19) was 191.97 mm^3 and the Tumor volume ([1]; 10 mg/kg i.v., Day 22) was 314.32 mm^3. It also gave a Tumor volume ([1]; 10 mg/kg i.v., Day 24) of 375.81 mm^3, a Tumor volume ([1]; 10 mg/kg i.v., Day 27) of 427.75 mm^3 and a Tumor volume ([1]; 10 mg/kg i.v., Day 31) of 386.68 mm^3. For the same compound, the Tumor volume ([1]; 10 mg/kg i.v., Day 36) was 347.85 mm^3, the Tumor volume ([1]; 10 mg/kg i.v., Day 39) was 312.31 mm^3 and the Tumor volume ([1]; 10 mg/kg i.v., Day 42) was 252.78 mm^3. The Tumor volume ([1]; 10 mg/kg i.v., Day 46) was 197.45 mm^3, the Tumor volume ([1]; 10 mg/kg i.v., Day 49) was 142.21 mm^3 and the Tumor volume ([1]; 10 mg/kg i.v., Day 53) was 88.20 mm^3. For the same compound, the “Relative tumor volume (x ± S)” value [1, 8] was 0.45 ± 0.15, the “T/C (%)” value [1, 8] was 3.83% and the “TGI (%)” value [1, 8] was 96.17%. For the same compound, the “Tumor volume (x ± S)” value [1, 8] was 88.20 ± 29.95, the complete cure ([1]; one mouse in each of Groups 3, 4, 7) was “completely cured” and the “TGI (%)” value [2] was 99.86%. The “Percentage remaining after 2 hours in plasma” value [3] was 38.19% and the “Percentage remaining after 2 hours in plasma” value [4] was 33.03%.
